In US20100130618A1, “TREATMENT OF HUMAN DISEASE CONDITIONS AND DISORDERS USING VITAMIN K ANALOGUES AND DERIVATIVES” (priority 2007, published 2010):
Where two headings read alike, the source gives them in different places.

Key:
[1] = test system: Guinea Pig ileum; assay: Guinea pig ileum, barium chloride induced smooth muscle contraction; settings: dose 640 μg (1.6 ml); barium chloride 1%
Method: (§1) Muscle relaxant activity was evaluated of pure test samples PK and MK-4 with Frog Rectus Abdominus Muscle and Guinea Pig ileum.
(§2) To evaluate the effect of test samples on smooth muscle contraction induced by (a) Acetylcholine (Neurotransmitter) which acts on […] receptors, (b) Histamine that causes a transient rise of cytosolic calcium, which is mediated by H1 receptor coupling that triggers release of internal calcium stores and (c) Barium that enters the cell through a voltage dependent calcium channel and, either directly or indirectly, interacts with calmodulin.
(§3) Test Samples were PK-400 μg/ml and MK-4-400 μg/ml

[2] = test system: Guinea Pig ileum; assay: Guinea pig ileum, acetylcholine induced smooth muscle contraction; settings: for inhibition of acetylcholine induced smooth muscle contraction: acetylcholine 50 μg/ml; for smooth muscle relaxant activity (inference): overall inference from guinea pig ileum data
Method: as §1, §2, §3

[3] = test system: Frog Rectus Abdominus Muscle; assay: Frog rectus abdominus muscle preparation, acetylcholine induced skeletal muscle contraction; settings: for antagonism of contraction induced by acetylcholine (40 μg): dose of 400 μg; for activity on skeletal muscle contraction (inference): overall inference
Method: as §1
B) Frog Rectus Abdominus Muscle Preparation
To evaluate the effect of test samples on skeletal muscle contraction induced by Acetylcholine (Neurotransmitter).
Acetylcholine: 100 mcg/ml
as §3

[4] = test system: Guinea Pig ileum; assay: Guinea pig ileum, histamine induced smooth muscle contraction; settings: dose 640 μg (1.6 ml); histamine 25 μg/ml
Method: as §1, §2, §3

[5] = test system: Frog Heart; assay: Frog heart, adrenaline-induced contractions; settings: for inhibition of adrenaline-induced contractions: 0.1 ml (40 μg), 0.2 ml (80 μg) and 0.4 ml (160 μg), adrenaline 40 μg/ml; for beta blocker activity (inference): overall inference from adrenalic response
Method: Frog Heart Adrenaline: 40 μg/ml

[6] = Clinical case studies of oral MK-7 (Examples 1-10); format: in vivo, humans
From the text: Examples 1-10 enumerate clinical case studies data and Examples 11 and 12 provide in vitro experiments.

[7] = 50 gms natto per day with 865, 1295 or 1730 μg MK-7 per 100 g; cited from earlier work
[8] = cited from earlier work
[9] = cited from earlier work; remark: listed apart in the source
[10] = cited from earlier work; remark: listed apart in the source
[11] = Example 02: MK-7 p.o. every day
[12] = Example 05: person, 100 μg per day

## CC(C)=CCC/C(C)=C/CC/C(C)=C/CC/C(C)=C/CC1=C(C)C(=O)c2ccccc2C1=O [MK-4, menatetrenone]
[1]
  inhibition of barium chloride induces smooth muscle contraction: 29%
[2]; dose 80 μg (0.2 ml)
  inhibition of acetylcholine induced smooth muscle contraction: 21.62%
[2]; dose 160 μg (0.4 ml)
  inhibition of acetylcholine induced smooth muscle contraction: 40%
[2]; dose 320 μg (0.8 ml)
  inhibition of acetylcholine induced smooth muscle contraction: 81.81%
[2]
  smooth muscle relaxant activity (inference): demonstrate a smooth muscle relaxant activity
[3]
  antagonism of contraction induced by acetylcholine (40 μg): not antagonized
  activity on skeletal muscle contraction (inference): failed to exhibit activity
[4]
  inhibition of histamine induced smooth muscle contraction: 29.4%
[5]
  inhibition of adrenaline-induced contractions: failed to inhibit
  beta blocker activity (inference): do not exhibit beta blocker activity

## CC(C)=CCC/C(C)=C/CC/C(C)=C/CC/C(C)=C/CC/C(C)=C/CC/C(C)=C/CC/C(C)=C/CC1=C(C)C(=O)c2ccccc2C1=O [MK-7]
[6]; Example 01: person, type 2 diabetes, MK-7 100 μg per day for 2 months
  tingling, numbness and burning of feet: complete relief
[6]; Example 01: person, type 2 diabetes, MK-7 for one and a half years
  skin hyper pigmentation of nape of neck: almost subsided
[6]; Example 02: MK-7 added to schedule
  energy levels and fatigue: higher energy levels and less fatigue
[6]; [11]
  paper-money skin appearance: much reduced
  tingling and numbness: reduced markedly
[6]; Example 02: MK-7 p.o. every day, over the next four months (before: 2 to 3 times in a week)
  frequency of mild cramps: one or two in a month
[6]; Example 02: person, type 2 diabetes, hypertension, MK-7 p.o. every day, over the next two weeks
  severity and frequency of muscle cramps: steadily decreased
[6]; Example 03: person, 100 μg one tablet per day, after six months
  cramps during night and day: disappeared
[6]; Example 04: person, daily dose 200 μg, within 10-15 days
  rough skin on both heels: completely lost roughness and became smooth
[6]; [12]
  scalp hair-loss: stopped distinctly
  skin of feet: smoothness of skin of their feet, diminution of cracks in the feet
[6]; Example 05: person, p.o. 100 μg per day
  hyper pigmentation and paper-money skin of lower limbs: gradually reduced to a bare minimum
[6]; Example 06: person, 100 μg two times a day
  frequency, duration and severity of leg cramps: decreased
[6]; Example 07: 100 μg twice a day, another 3 months (6 months total)
  skin lightening: considerable lightening of the skin
[6]; Example 07: person, 100 μg twice a day, after 2 to 3 months
  hyper pigmentation of face, arms and neck: decreased
[6]; Example 08: 200 μg per day, over 2 months
  nail growth: grows faster
[6]; Example 08: athlete, 200 μg per day, within 2 months
  severity of cramps after marathon: lowered
[6]; Example 09: diabetic, 100 μg per day, within 15 days
  residual neuropathy symptoms (tingling, numbness, paresthesiae, burning sensation): disappears completely
[6]; Example 10: 200 μg per day for 1 year (before: every night)
  frequency of restless legs syndrome: once or twice a month
[6]; Example 10: person, 200 μg per day, within 2 weeks
  restless legs syndrome: reduced considerably
[7]
  serum MK-7 concentration and γ-carboxylated osteocalcin concentration: elevated parallel to the administered level
[8]; at 72 hrs
  concentration relative to the peak value concentration (Cmax) achieved by PK: > 50%
  detectability in circulation: remains detectable
[8]; in vivo
  half life: 50 h
[9]; British women
  serum MK-7 concentration (mean±SD): 0.37 ± 0.20 ng/mL
[9]; Japanese women in Hiroshima
  serum MK-7 concentration (mean±SD): 1.22 ± 1.85 ng/mL
[9]; Japanese women in Tokyo
  serum MK-7 concentration (mean±SD): 5.26 ± 6.13 ng/mL
[10]; dietary intake 24 μg per day mid tertile vs 12 μg per day lower tertile
  reduction (mid tertile): 25%
[10]; dietary intake 45 μg per day upper tertile vs 12 μg per day lower tertile, 10 years follow-up
  reduction in CHD mortality and aortic calcification: 50%
[10]; dietary intake 45 μg per day upper tertile vs 12 μg per day lower tertile
  reduction in all cause mortality: 25%

## CC1=C(C/C=C(\C)CCC[C@H](C)CCC[C@H](C)CCCC(C)C)C(=O)c2ccccc2C1=O [PK, phylloquinone]
[1]
  inhibition of barium chloride induces smooth muscle contraction: 31%
[2]; dose 320 μg (0.8 ml)
  inhibition of acetylcholine induced smooth muscle contraction: 38.46%
[2]; dose 640 μg (1.6 ml)
  inhibition of acetylcholine induced smooth muscle contraction: 46.15%
[2]
  smooth muscle relaxant activity (inference): demonstrate a smooth muscle relaxant activity
[8]; in vivo
  elimination half life: 1.5 h
[8]; taken together with 30 g fat
  absorption from vegetables: 10-15%
[8]; without concomitant fat intake
  absorption from vegetables: 5-10%
[3]
  antagonism of contraction induced by acetylcholine (40 μg): not antagonized
  activity on skeletal muscle contraction (inference): failed to exhibit activity
[4]
  inhibition of histamine induced smooth muscle contraction: 37.16%
[5]
  inhibition of adrenaline-induced contractions: failed to inhibit
  beta blocker activity (inference): do not exhibit beta blocker activity

## CC(C)NCC(O)COc1cccc2ccccc12 (stereo not drawn) [Propanolol]
[5]; reference competitive inhibitor of adrenaline, FIG. 6
  inhibition of adrenaline response: found to inhibit adrenaline response

## vitamin B12
[6]; Example 02: vitamin B12 deficiency on Metformin, injections 500 μg over 2 weeks, MK-7 continued
  tingling and numbness: significant relief
